A short description of data set [1]: Cys-triggered fluorescence turn on in PBS. As to conditions: for fluorescence response to Cys: compound 10 μM, Cys 100 μM, PBS pH 7.4. The method, then: Representative Measurement of Fluorescence Intensity of Compound Embodiments—A freshly prepared compound 202a stock solution (3.00 μL, 10.0 mM in DMSO) was added to 3.00 mL of PBS (Ph 7.40, 10.0 Mm) containing CA (25.0 μg/mL) in a quartz fluorescence cuvette. A Cys stock solution (10.0 mM) was then added to reach the desired working concentration. The reaction solution was excited at 490 nm and the fluorescence intensity (500-650 nm) was measured and recorded using a Quanta Master 40 spectrofluorometer.
In this example, it was determined that Cys-induced compound 202a activation can be monitored by tracking the fluorescein formation and accompanied fluorescence response, and, in some embodiments, the reaction proceeds more quickly when higher concentrations of thiols are added. Time-dependent fluorescence spectra (FIG. 2A) and UV-vis spectra (FIG. 2B) of a particular compound embodiment, compound 202a, (10 μM) in PBS buffer (pH 7.4, 10 mM) containing Cys (100 μM) and CA (25 μg/mL) were obtained using a fluorescence spectrometer. […] Fluorescein formation was also confirmed by UV-vis spectroscopy under the identical conditions (FIG. 2B). Specifically, a freshly prepared compound 202a stock solution (3.00 μL, 10.0 mM in DMSO) was added to 3.00 mL of PBS (pH 7.40, 10.0 mM) containing CA (25.0 μg/mL) in a quartz UV cuvette. A Cys stock solution (30.0 μL, 10.0 mM in H2O) was then added. The absorbance (350-600 nm) was measured for 3 hours using a Cary 100 spectrometer. A Cys-dependent fluorescence enhancement was observed when treating compound 202a (10 μM) with increasing concentrations of Cys (1-20 equiv.), indicating a high sensitivity of compound 202a towards Cys. […] In addition, to confirm the H2S delivery from compound 202a, compound 202a (10 μM) was treated with Cys (100 μM) in PBS containing CA (25 μg/mL) and quantified H2S release using the MB assay. […] Optical measurement conditions were as follows: […], and slit width=0.3 mm.

Data set [2] in a line: Spectroscopic properties in PBS buffer (pH 7.4, 10 mM). The format is physicochemical. As to conditions: PBS (pH 7.4, 10 mM). The method, then: In this example, the spectroscopic properties in PBS buffer (pH 7.4, 10 mM) of compounds 202a-202d, and control compound 204. Compounds 202a-202c and control compound 204 were not absorptive in the visible region and are all these compounds were not fluorescent because the fluorescein unit is locked in the closed lactone form.

A short description of data set [3]: Thiol-triggered H2S release in PBS containing CA (MB assay). As to conditions: for GSH-triggered H2S release: PBS containing GSH and CA. The method, then: To evaluate thiol effects on COS/H2S release from cyclic perthiocarbamate compound embodiments, compound 306a (50 μM) was incubated in PBS (pH 7.4, 10 mM) containing Cys or GSH (up to 4.0 mM) and CA (25 μg/mL) and H2S release was monitored by MB assay. […] Additionally, other thiol triggers, such as cysteine, homocysteine, and N-acetyl cysteine, were combined with compound 306a to evaluate if they would trigger the compound to release H2S.
In this example, GSH-triggered H2S release from compound 900 was evaluated. […] To improve the H2S releasing capacity of ATB-346, compound 900 was made by reacting ATB-346 with chlorocarbonyl sulfenyl chloride reagent (see Scheme 9). The resultant compound 900 was then added to PBS containing GSH and CA.
Release of H2S from compound 404c (25 μM) in the presence of L-cysteine or reduced glutathione (GSH) (500 μM, 20 equiv.) measured by the spectrophotometric methylene blue assay, with results shown in FIG. 17.
In this example, additional compounds, such as cyclic sulfenyl thiocarbamate compounds 306a-306e, were evaluated for their ability to release H2S upon exposure to a biological thiol, cysteine.
With the hybrid NSAID in hand, COS/H2S release in aqueous buffer was evaluated.

In data set [4] the test system is porcine liver esterase (PLE). Put plainly: Esterase stability of the sulfenyl thiocarbonate group (fluorescence). It counts as in vitro ADME. To be noted: compound 10 μM, PLE 1 U/mL, 2-hour incubation. The method, then:
Compound 202a also (10 μM) was incubated with RSONs (100 μM), such as H2O2, ClO^−, O2^−, TBHP, Ser, Lys, Gly, GSSG, and GSNO, and COS/H2S release was monitored by tracking the fluorescein formation. […] Because the carbonate functional group may be sensitive to esterase-catalyzed hydrolysis, the esterase stability of the sulfenyl thiocarbonate group also was evaluated by incubating compound 202a (10 μM) with porcine liver esterase (PLE, 1 U/mL).

Data set [5] has as its system RAW 264.7 cells. Description: Cytotoxicity in RAW 264.7 cells (CCK-8). The format is cell-based. As to conditions: concentrations up to 25 μM, 2 hours. How it is done: In this example, cytoprotective activity of compound 202a against LPS-induced inflammation was evaluated. […] The compounds of the present disclosure were therefore evaluated to determine their anti-inflammatory activities due to H2S release. RAW 264.7 cells were incubated with compound 202a (0-25 μM) for 2 hours, followed by a 24-hour incubation with lipopolysaccharide (LPS, 0.5 μg/mL) to trigger the inflammatory response. The inflammation event usually results in the NO generation, which can be monitored by measuring nitrite (NO2—) accumulation. […] In particular, confluent RAW 264.7 cells were incubated in FBS-free DMEM containing vehicle (0.5% DMSO), compound 202a, BnSH, and compound 204 (10.0-100 μM) for 2 hours in a 96-well plate. The culture media were then removed and 100 μL of FBS-free DMEM containing 10% CCK-8 solution was added to each well, and cells were incubated for 2 hours at 37° C. The absorbance at 450 nm was measured by using a microplate reader (FIG. 9). The cell viability was measured and normalized to the vehicle group. The results are expressed as mean t SEM (n=6).

Data set [6] can be described thus: Selectivity of fluorescence turn on to cellular RSONs and thiols. To be noted: 10 μM, PBS at physiological pH, 2 hours. The method, then:
Representative Procedure for Evaluating Selectivity of Compound EmbodIments to Cellular RSONs—To 3.00 mL of PBS was added a stock solution of compound 202a (3.00 μL, 10.0 mM in DMSO), followed by the addition of RSON stock solution (30.0 μL, 10.0 mM in H2O). After 2 hours of incubation at room temperature, the solution was excited at 490 nm and the fluorescence intensity (500-650 nm) was measured and recorded by using a Quanta Master 40 spectrofluorometer. For the NEM-pretreated group, NEM (30.0 μL, 1.00 M) was added to PBS (3.00 mL) containing CA (25.0 μg/mL) and Cys (100 μM). The solution was then incubated for 1 hour before adding the compound 202a stock solution (3.00 μL, 10.0 mM in DMSO).
In this example, fluorescence turn on of compound 202a (10 μM) in the presence of cellular reactive sulfur, oxygen, and nitrogen species (RSONs) (100 μM) was evaluated. […] Compound 202a (10 μM) was incubated with GSH, homocysteine (Hcy), N-acetyl cysteine (NAC), penicillamine (PEN), or bovine serum albumin (BSA) (100 μM), in PBS buffer (pH 7.4, 10 mM) containing CA (25 μg/mL) and the fluorescent intensity was measured after 2 hours. […]
Compound 202a also (10 μM) was incubated with RSONs (100 μM), such as H2O2, ClO^−, O2^−, TBHP, Ser, Lys, Gly, GSSG, and GSNO, and COS/H2S release was monitored by tracking the fluorescein formation. […]

Data set [7] relates to HeLa cells. Description: Cytotoxicity in HeLa cells (CCK-8). It counts as cell-based. To be noted: 6.25-50.0 μM, 30 minutes. How it is done: In this example, H2S delivery from compound 202a in HeLa cells was evaluated. To determine whether compound embodiments of the present disclosure can be activated to release COS/H2S in cellular environment, HeLa cells were treated with compound 202a under different conditions. HeLa cells were treated with compound 202a (50 μM) or compound 204 (50 μM) and H2S release was monitored using C7-Az, a H2S-responsive fluorescent probe. […] To confirm that compound 202a was not cytotoxic, confluent HeLa cells were incubated in FBS-free DMEM containing vehicle (0.5% DMSO), and compound 202a (6.25-50.0 μM) for 30 minutes in a 96-well plate. The culture media were then removed and 100 μL of FBS-free DMEM containing 10% CCK-8 solution was added to each well, and cells were incubated for 2 hours at 37° C. The absorbance at 450 nm was measured by using a microplate reader (see FIG. 8). The cell viability was measured and normalized to the vehicle group. The results are expressed as mean t SEM (n=6).

Data set [8] relates to RAW 264.7 cells. Description: Anti-inflammatory activity: LPS-induced NO2- accumulation (Griess). As to conditions: pretreatment 25 μM for 2 hours, then LPS 0.500 μg/mL 24 hours. It counts as cell-based. A general note: The Griess reaction detects nitrite, a stable product of nitric oxide.
Description: Representative Procedure for Determining Anti-Inflammatory Activities of Compound Embodiments and Control Compounds—Macrophage RAW 264.7 cells were seeded in a 24-well plate (5×10^5 cells/well) containing 0.500 mL of DMEM and incubated at 37° C. under 5% CO2 for 24 hours. The confluent cells were washed with PBS and incubated with either compound 202a (0-25.0 μM), or GYY4137 (25.0 μM) at 37° C. for 2 hours. Compounds were then removed by washing cells with PBS and these pretreated cells were incubated in FBS-free DMEM containing LPS (0.500 μg/mL) for 24 hours. NO2— levels were measured by using a Griess Reagent Kit.
The test system of data set [9] is HeLa cells. Description: Cellular imaging of H2S delivery in HeLa cells with C7-Az probe. The format is cell-based. As to conditions: compound 50 μM, C7-Az 50 μM, 30 minutes. How it is done: HeLa cells were then plated in poly-D-lysine coated plates (MatTek) containing 2.00 mL of DMEM and incubated at 37° C. under 5% CO2 for 24 hours. The confluent cells were washed with PBS and then co-incubated with NucRed nuclear dye (2 drops), C7-Az (50.0 μM), and compound 202a (50.0 μM) for 30 minutes. Prior to imaging, the cells were washed with PBS and bathed in 2.00 mL of PBS. Cell imaging was performed on a Leica DMi8 fluorescent microscope. […] To confirm that compound 202a was not cytotoxic, confluent HeLa cells were incubated in FBS-free DMEM containing vehicle (0.5% DMSO), and compound 202a (6.25-50.0 μM) for 30 minutes in a 96-well plate. The culture media were then removed and 100 μL of FBS-free DMEM containing 10% CCK-8 solution was added to each well, and cells were incubated for 2 hours at 37° C. The absorbance at 450 nm was measured by using a microplate reader (see FIG. 8). The cell viability was measured and normalized to the vehicle group. The results are expressed as mean t SEM (n=6).

Data set [10] concerns RAW 264.7 cells. As to conditions: 100-1000 μM and 24-hour incubation; cited from earlier work.

For the compound `O=C(Oc1ccc2c(c1)Oc1cc(O)ccc1C21OC(=O)c2ccccc21)SSCc1ccccc1` (centres unmarked) [Compound 202d], the “fluorescence response to Cys” value in data set [1] was “minimal fluorescence enhancement”. Further, in data set [2], the Φ was 0.11 ± 0.01, the ε is recorded as 27,300 ± 2500 M^−1cm^−1, the λem amounted to 514 nm and the λmax stood at 449 nm.
Regarding `COc1ccc2cc(C(C)C(=O)Oc3ccc(C(N)=S)cc3)ccc2c1` (centres unmarked) [ATB-346, reference compound], the “GSH-triggered H2S release” value in [3] was “not detected”.
For `COc1ccc2cc(C(C)C(=O)Oc3ccc(-c4nc(=O)ss4)cc3)ccc2c1` (centres unmarked) [Compound 900], the “GSH-triggered H2S release” value in [3] is “promising H2S release was observed”. Moreover, the “thiol-triggered H2S release in buffer with CTAB” value in data set [3] (compound 50 μM, PBS pH 7.4, CTAB 1.0 mM, CA 25 μg/mL, Cys or GSH 1.0 mM) is listed as “thiol-triggered H2S release was immediately observed”.
For the compound `O=C(Oc1ccc2c(c1)Oc1cc(OC(=O)SSCc3ccccc3)ccc1C21OC(=O)c2ccccc21)SSCc1ccccc1` [Compound 202a], the “fluorescence with porcine liver esterase” value in data set [4] is “slight fluorescence turn on”. Besides, in data set [5], the “cytotoxicity in RAW 264.7 cells” value is reported as “did not induce cytotoxicity”. Moreover, in data set [1] (compound 10 μM in PBS, no Cys), the “fluorescent signal in the absence of Cys (stability in aqueous buffer)” value is given as “No fluorescent signal was observed”. The “stability in PBS in the absence of thiols” value in [6] is reported as “stable”. The “cytotoxicity in HeLa cells” value in data set [7] is given as “not cytotoxic”.
On to `O=C(Oc1ccc2c(c1)Oc1cc(OC(=O)SCc3ccccc3)ccc1C21OC(=O)c2ccccc21)SCc1ccccc1` [Compound 204], for which, in [8], the “anti-inflammatory activity at 25 μM (NO2− production)” value (from here on “anti-inflammatory activity at 25 μM”) was “none of these species exhibited anti-inflammatory activities”. Further, the “fluorescence response to Cys” value in data set [1] is recorded as “No fluorescence response”. Also, in data set [9], the “C7-Az (H2S probe) fluorescence in HeLa cells” value is “failed to turn on the fluorescence”.
In the case of `C1COCCN1.COc1ccc(P(=S)(S)N2CCOCC2)cc1` (centres unmarked) [GYY4137], the “anti-inflammatory activity at 25 μM” value in data set [8] is reported as “such cytoprotection was not observed”. Further, the “anti-inflammatory effects at higher concentration and longer incubation” value in data set [10] is given as “anti-inflammatory effects”.
As to `SCc1ccccc1` [benzyl mercaptan], the “anti-inflammatory activity at 25 μM” value in [8] is on record as “none of these species exhibited anti-inflammatory activities”.
Turning to `O=c1ssc(=O)n1-c1ccc(Cl)cc1` [Compound 404c], in [3] (compound 25 μM, L-cysteine or GSH 500 μM (20 equiv.), CA, MB assay), the “COS released on reaction with thiols” value is on record as “two equivalents of COS”.
